In ChEMBL document CHEMBL1124634, “Synthesis and antirhinovirus activity of 6-(dimethylamino)-2-(trifluoromethyl)-9-(substituted benzyl)-9H-purines” (J Med Chem, 1989):

System: Human rhinovirus sp.
Assay: Antiviral activity against rhinoviral 12 serotype in a plaque inhibition assay using monolayers of M-HeLa cells
Type: functional, organism-based

SMILES | IC50
CN(C)c1nc(C(F)(F)F)nc2c1ncn2Cc1ccc(Cl)cc1Cl | 11 µM
CN(C)c1ccc(Cn2cnc3c(N(C)C)nc(C(F)(F)F)nc32)cc1 | 4 µM
CN(C)c1nc(C(F)(F)F)nc2c1ncn2Cc1cccc(F)c1 | 2.3 µM
CN(C)c1nc(C(F)(F)F)nc2c1ncn2Cc1ccc([N+](=O)[O-])cc1 | 8 µM

System: not listed separately
Assay: Percent inhibitory activity at 4 uM against rhinoviral-1A serotype in a plaque inhibition assay using monolayers of M-HeLa cells
Type: functional, Homo sapiens

SMILES | Inhibition
CN(C)c1nc(C(F)(F)F)nc2c1ncn2Cc1ccc([N+](=O)[O-])cc1 | 38 µM

System: Human rhinovirus sp.
Assay: Percent inhibitory activity at 8 uM against rhinoviral 13 serotype in a plaque inhibition assay using monolayers of M-HeLa cells
Type: functional

SMILES | Inhibition
CN(C)c1nc(C(F)(F)F)nc2c1ncn2Cc1ccc(Cl)cc1Cl | 20%
CN(C)c1ccc(Cn2cnc3c(N(C)C)nc(C(F)(F)F)nc32)cc1 | 45%
CN(C)c1nc(C(F)(F)F)nc2c1ncn2Cc1cccc(F)c1 | 30%
CN(C)c1nc(C(F)(F)F)nc2c1ncn2Cc1ccc([N+](=O)[O-])cc1 | 13%

System: Human rhinovirus sp.
Assay: Percent inhibitory activity at 8 uM against rhinoviral 5 serotype in a plaque inhibition assay using monolayers of M-HeLa cells
Type: functional

SMILES | Inhibition
CN(C)c1ccc(Cn2cnc3c(N(C)C)nc(C(F)(F)F)nc32)cc1 | 39%
CN(C)c1nc(C(F)(F)F)nc2c1ncn2Cc1cccc(F)c1 | 34%

System: Human rhinovirus sp.
Assay: Antiviral activity against rhinoviral 5 serotype in a plaque inhibition assay using monolayers of M-HeLa cells
Type: functional, organism-based

SMILES | IC50
CN(C)c1nc(C(F)(F)F)nc2c1ncn2Cc1ccc(Cl)cc1Cl | > 8 µM

System: Human rhinovirus sp.
Assay: Percent inhibitory activity at 8 uM against rhinoviral 21 serotype in a plaque inhibition assay using monolayers of M-HeLa cells
Type: functional

SMILES | Inhibition
CN(C)c1nc(C(F)(F)F)nc2c1ncn2Cc1ccc(Cl)cc1Cl | 30%
CN(C)c1ccc(Cn2cnc3c(N(C)C)nc(C(F)(F)F)nc32)cc1 | 27%
CN(C)c1nc(C(F)(F)F)nc2c1ncn2Cc1ccc([N+](=O)[O-])cc1 | 28%

System: Human rhinovirus sp.
Assay: Percent inhibitory activity at 8 uM against rhinoviral 19s erotype in a plaque inhibition assay using monolayers of M-HeLa cells
Type: functional

SMILES | Inhibition
CN(C)c1nc(C(F)(F)F)nc2c1ncn2Cc1ccc(Cl)cc1Cl | 40%
CN(C)c1ccc(Cn2cnc3c(N(C)C)nc(C(F)(F)F)nc32)cc1 | 23%
CN(C)c1nc(C(F)(F)F)nc2c1ncn2Cc1cccc(F)c1 | 28%

System: not listed separately
Assay: Percent inhibitory activity at 8 uM against rhinoviral 8 serotype in a plaque inhibition assay using monolayers of M-HeLa cells
Type: functional, Homo sapiens

SMILES | Inhibition
CN(C)c1ccc(Cn2cnc3c(N(C)C)nc(C(F)(F)F)nc32)cc1 | 37%
CN(C)c1nc(C(F)(F)F)nc2c1ncn2Cc1cccc(F)c1 | 45%

System: Human rhinovirus sp.
Assay: Antiviral activity against rhinoviral 14 serotype in a plaque inhibition assay using monolayers of M-HeLa cells
Type: functional, organism-based

SMILES | IC50
CN(C)c1nc(C(F)(F)F)nc2c1ncn2Cc1cccc(F)c1 | 7.1 µM
CN(C)c1nc(C(F)(F)F)nc2c1ncn2Cc1ccc([N+](=O)[O-])cc1 | 8.6 µM

System: not listed separately
Assay: Percent inhibitory activity at 10 uM against rhinoviral 5 serotype in a plaque inhibition assay using monolayers of M-HeLa cells
Type: functional, Homo sapiens

SMILES | Inhibition
CN(C)c1nc(C(F)(F)F)nc2c1ncn2Cc1ccc([N+](=O)[O-])cc1 | 32%

System: Human rhinovirus sp.
Assay: Percent inhibitory activity at 8 uM against rhinoviral 15 serotype in a plaque inhibition assay using monolayers of M-HeLa cells
Type: functional

SMILES | Inhibition
CN(C)c1nc(C(F)(F)F)nc2c1ncn2Cc1ccc(Cl)cc1Cl | 10%
CN(C)c1ccc(Cn2cnc3c(N(C)C)nc(C(F)(F)F)nc32)cc1 | 30%
CN(C)c1nc(C(F)(F)F)nc2c1ncn2Cc1ccc([N+](=O)[O-])cc1 | 31%

System: Human rhinovirus sp.
Assay: Antiviral activity against rhinoviral 8 serotype in a plaque inhibition assay using monolayers of M-HeLa cells
Type: functional, organism-based

SMILES | IC50
CN(C)c1nc(C(F)(F)F)nc2c1ncn2Cc1ccc(Cl)cc1Cl | 8.5 µM
CN(C)c1nc(C(F)(F)F)nc2c1ncn2Cc1ccc([N+](=O)[O-])cc1 | 8.1 µM

System: Human rhinovirus sp.
Assay: Percent inhibitory activity at 8 uM against rhinoviral 29 serotype in a plaque inhibition assay using monolayers of M-HeLa cells
Type: functional

SMILES | Inhibition
CN(C)c1nc(C(F)(F)F)nc2c1ncn2Cc1ccc(Cl)cc1Cl | 15%

System: Human rhinovirus sp.
Assay: Antiviral activity against rhinoviral 16 serotype in a plaque inhibition assay using monolayers of M-HeLa cells
Type: functional, organism-based

SMILES | IC50
CN(C)c1nc(C(F)(F)F)nc2c1ncn2Cc1ccc(Cl)cc1Cl | 0.85 µM
CN(C)c1ccc(Cn2cnc3c(N(C)C)nc(C(F)(F)F)nc32)cc1 | 1.9 µM
CN(C)c1nc(C(F)(F)F)nc2c1ncn2Cc1cccc(F)c1 | 0.8 µM
CN(C)c1nc(C(F)(F)F)nc2c1ncn2Cc1ccc([N+](=O)[O-])cc1 | 1.5 µM

System: Human rhinovirus sp.
Assay: Antiviral activity against rhinoviral 21 serotype in a plaque inhibition assay using monolayers of M-HeLa cells
Type: functional, organism-based

SMILES | IC50
CN(C)c1nc(C(F)(F)F)nc2c1ncn2Cc1cccc(F)c1 | 10 µM

System: Human rhinovirus sp.
Assay: Antiviral activity against rhinoviral 9 serotype in a plaque inhibition assay using monolayers of M-HeLa cells
Type: functional, organism-based

SMILES | IC50
CN(C)c1nc(C(F)(F)F)nc2c1ncn2Cc1ccc(Cl)cc1Cl | 0.93 µM
CN(C)c1ccc(Cn2cnc3c(N(C)C)nc(C(F)(F)F)nc32)cc1 | 4.6 µM
CN(C)c1nc(C(F)(F)F)nc2c1ncn2Cc1cccc(F)c1 | 0.3 µM
CN(C)c1nc(C(F)(F)F)nc2c1ncn2Cc1ccc([N+](=O)[O-])cc1 | 5.6 µM

System: Human rhinovirus sp.
Assay: Antiviral activity against rhinoviral 30 serotype in a plaque inhibition assay using monolayers of M-HeLa cells
Type: functional, organism-based

SMILES | IC50
CN(C)c1nc(C(F)(F)F)nc2c1ncn2Cc1ccc(Cl)cc1Cl | 11 µM

System: Human rhinovirus sp.
Assay: Percent inhibitory activity at 8 uM against rhinoviral 31 serotype in a plaque inhibition assay using monolayers of M-HeLa cells
Type: functional

SMILES | Inhibition
CN(C)c1nc(C(F)(F)F)nc2c1ncn2Cc1ccc(Cl)cc1Cl | 28%
CN(C)c1ccc(Cn2cnc3c(N(C)C)nc(C(F)(F)F)nc32)cc1 | 41%
CN(C)c1nc(C(F)(F)F)nc2c1ncn2Cc1cccc(F)c1 | 43%
CN(C)c1nc(C(F)(F)F)nc2c1ncn2Cc1ccc([N+](=O)[O-])cc1 | 37%

System: Human rhinovirus sp.
Assay: Percent inhibitory activity at 8 uM against rhinoviral 30 serotype in a plaque inhibition assay using monolayers of M-HeLa cells
Type: functional

SMILES | Inhibition
CN(C)c1ccc(Cn2cnc3c(N(C)C)nc(C(F)(F)F)nc32)cc1 | 35%
CN(C)c1nc(C(F)(F)F)nc2c1ncn2Cc1cccc(F)c1 | 28%
CN(C)c1nc(C(F)(F)F)nc2c1ncn2Cc1ccc([N+](=O)[O-])cc1 | 28%

System: Human rhinovirus sp.
Assay: Antiviral activity against rhinoviral 19 serotype in a plaque inhibition assay using monolayers of M-HeLa cells
Type: functional, organism-based

SMILES | IC50
CN(C)c1nc(C(F)(F)F)nc2c1ncn2Cc1ccc([N+](=O)[O-])cc1 | 8.8 µM

System: Human rhinovirus sp.
Assay: Percent inhibitory activity at 8 uM against rhinoviral 14 serotype in a plaque inhibition assay using monolayers of M-HeLa cells
Type: functional

SMILES | Inhibition
CN(C)c1nc(C(F)(F)F)nc2c1ncn2Cc1ccc(Cl)cc1Cl | 35%
CN(C)c1ccc(Cn2cnc3c(N(C)C)nc(C(F)(F)F)nc32)cc1 | 46%

System: Human rhinovirus sp.
Assay: Antiviral activity against rhinoviral-18 serotype in a plaque inhibition assay using monolayers of M-HeLa cells
Type: functional, organism-based

SMILES | IC50
CN(C)c1nc(C(F)(F)F)nc2c1ncn2Cc1cccc(F)c1 | 8 µM

System: not listed separately
Assay: Percent inhibitory activity at 8 uM against rhinoviral 18 serotype in a plaque inhibition assay using monolayers of M-HeLa cells
Type: functional, Homo sapiens

SMILES | Inhibition
CN(C)c1nc(C(F)(F)F)nc2c1ncn2Cc1ccc(Cl)cc1Cl | 32 µM

System: Human rhinovirus sp.
Assay: Antiviral activity against rhinoviral-1B serotype in a plaque inhibition assay using monolayers of M-HeLa cells
Type: functional, organism-based

SMILES | IC50
CN(C)c1nc(C(F)(F)F)nc2c1ncn2Cc1ccc(Cl)cc1Cl | 0.12 µM
CN(C)c1ccc(Cn2cnc3c(N(C)C)nc(C(F)(F)F)nc32)cc1 | 0.29 µM
CN(C)c1nc(C(F)(F)F)nc2c1ncn2Cc1cccc(F)c1 | 0.03 µM
CN(C)c1nc(C(F)(F)F)nc2c1ncn2Cc1ccc([N+](=O)[O-])cc1 | 0.07 µM

System: Human rhinovirus sp.
Assay: Antiviral activity against rhinoviral-1A serotype in a plaque inhibition assay using monolayers of M-HeLa cells
Type: functional, organism-based

SMILES | IC50
CN(C)c1nc(C(F)(F)F)nc2c1ncn2Cc1ccc(Cl)cc1Cl | 0.58 µM
CN(C)c1ccc(Cn2cnc3c(N(C)C)nc(C(F)(F)F)nc32)cc1 | 1.2 µM
CN(C)c1nc(C(F)(F)F)nc2c1ncn2Cc1cccc(F)c1 | 0.57 µM

System: Human rhinovirus sp.
Assay: Percent inhibitory activity at 8 uM against rhinoviral 3 serotype in a plaque inhibition assay using monolayers of M-HeLa cells
Type: functional

SMILES | Inhibition
CN(C)c1nc(C(F)(F)F)nc2c1ncn2Cc1ccc(Cl)cc1Cl | 17%
CN(C)c1nc(C(F)(F)F)nc2c1ncn2Cc1cccc(F)c1 | 35%
CN(C)c1nc(C(F)(F)F)nc2c1ncn2Cc1ccc([N+](=O)[O-])cc1 | 43%

System: Human rhinovirus sp.
Assay: Antiviral activity against rhinoviral 15 serotype in a plaque inhibition assay using monolayers of M-HeLa cells
Type: functional, organism-based

SMILES | IC50
CN(C)c1nc(C(F)(F)F)nc2c1ncn2Cc1cccc(F)c1 | 3.2 µM

System: Human rhinovirus sp.
Assay: Antiviral activity against rhinoviral 4 serotype in a plaque inhibition assay using monolayers of M-HeLa cells
Type: functional, organism-based

SMILES | IC50
CN(C)c1ccc(Cn2cnc3c(N(C)C)nc(C(F)(F)F)nc32)cc1 | 6.1 µM
CN(C)c1nc(C(F)(F)F)nc2c1ncn2Cc1ccc([N+](=O)[O-])cc1 | 4.1 µM

System: Human rhinovirus sp.
Assay: Percent inhibitory activity at 8 uM against rhinoviral 4 serotype in a plaque inhibition assay using monolayers of M-HeLa cells
Type: functional

SMILES | Inhibition
CN(C)c1nc(C(F)(F)F)nc2c1ncn2Cc1ccc(Cl)cc1Cl | 25%
CN(C)c1nc(C(F)(F)F)nc2c1ncn2Cc1cccc(F)c1 | 34%

System: Human rhinovirus sp.
Assay: Antiviral activity against rhinoviral 2 serotype in a plaque inhibition assay using monolayers of M-HeLa cells
Type: functional, organism-based

SMILES | IC50
CN(C)c1nc(C(F)(F)F)nc2c1ncn2Cc1ccc(Cl)cc1Cl | 6.9 µM
CN(C)c1ccc(Cn2cnc3c(N(C)C)nc(C(F)(F)F)nc32)cc1 | 11 µM
CN(C)c1nc(C(F)(F)F)nc2c1ncn2Cc1cccc(F)c1 | 15 µM
CN(C)c1nc(C(F)(F)F)nc2c1ncn2Cc1ccc([N+](=O)[O-])cc1 | 8.3 µM

System: Human rhinovirus sp.
Assay: Antiviral activity against rhinoviral 29 serotype in a plaque inhibition assay using monolayers of M-HeLa cells
Type: functional, organism-based

SMILES | IC50
CN(C)c1ccc(Cn2cnc3c(N(C)C)nc(C(F)(F)F)nc32)cc1 | 4.7 µM
CN(C)c1nc(C(F)(F)F)nc2c1ncn2Cc1cccc(F)c1 | 2.7 µM
CN(C)c1nc(C(F)(F)F)nc2c1ncn2Cc1ccc([N+](=O)[O-])cc1 | 10 µM

System: Human rhinovirus sp.
Assay: Antiviral activity against rhinoviral 18 serotype in a plaque inhibition assay using monolayers of M-HeLa cells
Type: functional, organism-based

SMILES | IC50
CN(C)c1ccc(Cn2cnc3c(N(C)C)nc(C(F)(F)F)nc32)cc1 | 8.9 µM
CN(C)c1nc(C(F)(F)F)nc2c1ncn2Cc1ccc([N+](=O)[O-])cc1 | 5.9 µM
